SMILES strings stand for the structures.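 Following 48 hours of exposure in 96-well plates, responses at five concentrations were used to interpolate endpoints linearly. GI50 marks 50% less growth.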 Activity calls are given as the source filed them. No stated cut-off is given here; in the data, active = GI50 up to about 1.1 µM and inactive = higher.

Among the test systems are CCRF-CEM; K562; UO-31; U-251; SW-620; RPMI-8226; OVCAR-4; HT-29; ACHN; BT-549; NCI/ADR-RES; NCI-H460; OVCAR-5; A498; SK-MEL-2; HCT-15; EKVX; TK-10.
What all share (test): NCI anticancer screen, dose series, 48 h

As for `O=C(O)c1c(-c2ccccc2)c(=O)[nH]c2ccccc12`, the GI50 in the assay with CCRF-CEM, with K562, with UO-31, in the assay with U-251, in the assay on SW-620 and in the assay with RPMI-8226 was > 100 µM (inactive) in each case. In addition, the GI50 in the assay on OVCAR-4, in the assay on HT-29, in the assay on ACHN, in the assay on BT-549, with NCI/ADR-RES and in the assay with NCI-H460 was > 100 µM (inactive) each time. Moreover, the GI50 with OVCAR-5 is > 100 µM (inactive); in the assay with A498, > 100 µM (inactive); with SK-MEL-2, > 100 µM (inactive); with HCT-15, more than 100 µM; with EKVX, > 100 µM (inactive); in the assay on TK-10, > 100 µM (inactive).

For `CCOC(=O)N(c1ccccc1)c1cc(=O)n2ccccc2n1`, the GI50 in the assay on CCRF-CEM, in the assay with K562, with UO-31, with U-251, in the assay with SW-620 and in the assay with RPMI-8226 was > 100 µM (inactive) throughout. The GI50 in the assay on OVCAR-4, in the assay with HT-29, with ACHN, with BT-549, in the assay on NCI/ADR-RES and with NCI-H460 was > 100 µM (inactive) each time. Moreover, the GI50 in the assay with OVCAR-5 is > 100 µM (inactive); with A498 it was > 100 µM (inactive); in the assay on HCT-15, more than 100 µM; in the assay with EKVX, > 100 µM (inactive); with TK-10, > 100 µM (inactive).

Consider `COc1ccc(OC)c(-c2nc(O)c3ccccc3n2)c1`, for which the GI50 in the assay on CCRF-CEM was > 100 µM (inactive); in the assay on K562, > 100 µM (inactive); with UO-31, > 100 µM (inactive); in the assay on U-251, > 100 µM (inactive); in the assay with SW-620, > 100 µM (inactive); in the assay on RPMI-8226, 78.3 µM (inactive). Also, the GI50 in the assay on OVCAR-4 was > 100 µM (inactive); in the assay on HT-29, > 100 µM (inactive); with ACHN, > 100 µM (inactive); in the assay on BT-549, > 100 µM (inactive); with NCI/ADR-RES, 98.4 µM (inactive); in the assay on NCI-H460, > 100 µM (inactive). The GI50 with OVCAR-5 was > 100 µM (inactive); in the assay on A498 it was > 100 µM (inactive); with SK-MEL-2, > 100 µM (inactive); in the assay on HCT-15, more than 100 µM; with EKVX, > 100 µM (inactive).

For the compound `CC(C)(C)[Si](C)(C)OCCC1CC2(S(=O)(=O)C3=CC=C=C=C3)ON1CC2S(=O)(=O)c1ccccc1` (stereo not drawn), the GI50 in the assay with CCRF-CEM is 2.56 µM (inactive); in the assay with UO-31 it was > 10 µM (inactive); with U-251, > 100 µM (inactive); in the assay on SW-620, > 10 µM (inactive); in the assay on RPMI-8226 it was > 10 µM (inactive); in the assay on OVCAR-4, > 10 µM (inactive). Also, the GI50 in the assay on HT-29, in the assay on ACHN, in the assay with BT-549, with NCI/ADR-RES, in the assay on NCI-H460 and with OVCAR-5 was > 10 µM (inactive) throughout. For the same compound, the GI50 with A498, in the assay on SK-MEL-2, with EKVX and with TK-10 was > 10 µM (inactive) each time.

The record behind these values is ChEMBL document CHEMBL1201862, “PubChem BioAssay data set” (2004).
